Laboratory results as given in patent US20080153792A1, “Drug Identification and Treatment Method” (priority 2006, published 2008).

What was measured:
[1] = system: CD1 male mice, carrageenan-λ induced pleurisy; assay: carrageenan-λ induced lung (pleural cavity) inflammation in mice; assay type: in vivo, mouse; conditions: for number of neutrophils relative to untreated carrageenan-λ control (100%): 4 h after carrageenan
NF-κB = assay: NF-κB-bla THP-1 β-lactamase reporter assay; assay type: cell-based, human
[2] = system: human peripheral blood mononuclear cells (PBMC); assay: human mixed lymphocyte reaction (MLR); assay type: cell-based; conditions: either 300 nM or 30 nM; 6 days; p>0.05
Method: Human mixed lymphocyte reaction (MLR). The capacity of 3β,16α-dihydroxy-17-oxoandrostane, 3β,17β-dihydroxy-16-oxoandrostane, 17α-ethynylandrost-5-ene-3β,7β,17β-triol, and 17β-aminoandrost-5-ene-3β-ol to affect antigen specific stimulation in which human T lymphocytes respond to a specific foreign antigen (major histocompatibility complex).
Blood samples were obtained from 3 (2 males, […]) fasting, healthy human volunteers of 23-31 years old. […] The subjects were bled between […] to limit possible fluctuations in the circulating levels of hormones or cytokines that could have influenced the in vitro responses of their lymphocytes. Peripheral blood mononuclear cells (PBMC) were isolated by centrifugation on Ficoll-Hypaque (density 1.077, Biochrom AG, Berlin, Germany) gradients and resuspended in culture medium (RPMI 1640 supplemented with 2 mM L-glutamine, penicillin (100 U/mL) and streptomycin ([…]) (Invitrogen s.rl., Milan, Italy). Autologous (responder) inactivated plasma was used at 10%. Five hundred thousand responder PBMC (PBMCr) and 500,000 allogeneic irradiated (30 Gy) stimulator PBMC (PBMCs) were mixed at a ratio of 1:1 in 200 μL medium and cultured for 6 days in flat bottom 96 well plates (Nunc, Roskilde, Denmark) at a concentration of 300 nM or 30 nM for each of the 4 compounds. The compounds were dissolved in ethanol and then diluted to the desired concentration with culture medium leading to a final solution containing 0.01% of ethanol. This vehicle was used as control. Controls also included PBMCr and PBMCs cultured separately. During the last 8 hours of the culture period the PBMC were pulsed with 1 μCi/well [^3H] thymidine (Amersham, Milan, Italy). The cells were then harvested and radioactivity incorporation measured with a beta cell counter. The mean cpm of quadruplicate wells was calculated. Proliferation of T cells was expressed as a stimulation index: SI=cpm (PMBCs xPBMCr)/cpm (PBMCr)+cpm (PBMCs). Statistical analysis was performed using the Student's t test. The cpm obtained from quadruplicate of each test compound were compared to proliferative responses obtained in control PBMCr and PBMCs cultured in the presence of the vehicle. Differences were considered significant at p<0.05.

[3] = system: γ-interferon production by human whole blood; assay: γ-interferon production in human whole blood exposed to LPS; assay type: cell-based; conditions: LPS 24 hours; 16α-bromoepiandrosterone at 100 ng/mL
Method: Anti-inflammation activity in human cells in vitro. […] The amount of γ-interferon was measured in the growth medium when the cells had been incubated in the presence of LPS for 24 hours.

[4] = system: mice, LPS induced lung injury; assay: lung injury by sublethal LPS to trachea and lungs, BAL cell count; assay type: in vivo, mouse; conditions: oral gavage 24 h before and 1 h after 100 μg LPS; 48 hours
Method: In another assay, the capacity of 16α-bromoepiandrosterone and 3β,16α-dihydroxy-17-oxoandrostane to protect against lung injury induced by exposure to a sublethal amount of LPS in mice was shown. In this assay, the compounds, sterile saline (negative control) or vehicle (vehicle control) were administered to groups of 5 mice by oral gavage at 24 hours before and 1 hour after administration of 100 μg of LPS to the trachea and lungs of animals under light anesthesia. At 48 hours the animals were sacrificed and samples were obtained from the lungs of the animals by bronchiolar alveolar lavage (BAL). The numbers of cells in the BAL fluid were counted, with high numbers of cells showing lung inflammation and damage. In this assay, cells that mediate inflammation and lung damage infiltrate into the lungs in response to the presence of the LPS. In the negative control and vehicle control groups, the BAL fluid contained about 6×10^7 cells/mL. […] Other compounds, e.g., 17α-ethynylandrost-5-ene-3β,7β,17β-triol or 17β-aminoandrost-5-ene-3β-ol, can be characterized in a similar manner.

[5] = system: mice given a lethal amount of LPS; assay: lethal shock protocol, lethal amount of bacterial LPS; assay type: in vivo, mouse; conditions: second assay; oral gavage 24 h before and 1 h after LPS
Method: Treatment of lethal inflammation/shock. Two compounds, 16α-bromoepiandrosterone (3β-hydroxy-16α-bromoandrostane-17-one) and 3β,16α-dihydroxy-17-oxoandrostane, were used in a lethal shock protocol. In one protocol, 3 mg of 16α-bromoepiandrosterone was administered to one group of animals by oral gavage, while another group received 3 mg of 16α-bromoepiandrosterone by subcutaneous injection. A group of control animals received a placebo control. In this protocol, the 16α-bromoepiandrosterone was administered to mice at 24 hours before and at 1 hour after administration of a lethal amount of bacterial lipopolysaccharide (LPS). By the end of the observation period, 72 hours after LPS administration, none of the vehicle treated placebo control animals had survived, while 65% of animals that received 16α-bromoepiandrosterone by oral administration survived. 50% of the animals that received 16α-bromoepiandrosterone by subcutaneous injection survived. Animals that survived for 72 hours all recovered from the LPS exposure.
In a second assay, 16α-bromoepiandrosterone or 3β,16α-dihydroxy-17-oxoandrostane was administered to mice by oral gavage at 24 hours before and 1 hour after administration of a lethal amount of LPS. A vehicle treated group of animals was used as the placebo control.

[6] = metabolic stability in liver microsomes, species not stated; assay type: in vitro ADME; conditions: compared with androst-5-ene-3β,17β-diol reference compound
Method: The protocol was performed as follows. […] (2) Set up samples as follows. […] (4) The internal standard/acetonitrile solution.

[7] = system: osteoblasts and osteocytes in murine vertebral bone; assay: osteoblast and osteocyte apoptosis in ovariectomized mice (TUNEL); assay type: in vivo, mouse; conditions: ovariectomized Swiss Webster mice
Description: The degree of apoptosis of osteoblasts and osteocytes in murine vertebral bone as a function of estrogen deficiency was examined. Swiss Webster mice (four months old) were ovariectomized. Twenty-eight days later, the animals were sacrificed, vertebrae were isolated, fixed and embedded, and then undecalcified in methacrylate.

[8] = system: mice treated daily with dexamethasone; assay: osteoprotegerin levels in dexamethasone treated mice; assay type: in vivo, mouse; conditions: vehicle and dexamethasone at 10 μg/day for 23 days (positive control group)
Method: Osteoprotegerin levels in mice that were treated with vehicle and dexamethasone at 10 μg/day (positive control group) had 3.3 pMol/L osteoprotegerin, while animals treated with vehicle, dexamethasone and 17α-ethynyl-5-androstene-3β,7β,17β-triol at 4 mg/kg/day had 6.4 pMol/L osteoprotegerin (p<0.05).

[9] = system: BALB/C mice, TNP-OVA sensitized; assay: reporter antigen popliteal lymph node (PLN) assay; assay type: in vivo, mouse; conditions: 5 μg/day by subcutaneous injection; day 5
Description: Analysis of immune suppression. Glucocorticoid steroids such as dexamethasone or hydrocortisone are typically immune suppressive and have significant toxicities associated with their use. Immune suppression was examined in a reporter antigen popliteal lymph node assay in mice essentially as previously described (C. Goebel et al., Inflamm. Res., 45(Suppl. 2):S85-S90, 1996; R. Pieters et al., Environmental Health Perspectives 107(Suppl. 5):673-677,1999). […] In this protocol, the vehicle was 0.1% carboxymethylcellulose, 0.9% saline, 2% tween 80 and 0.05% phenol, which contained 17α-ethynylandrost-5-ene-3β,7β,17β-triol in suspension in drug treated animals. Assessment of activity included (1) measuring suppression of numbers of total lymphocytes, antigen specific IgM, IgG1 and IgG2a antibody secreting cells (ASC) (ELISPOT assay) in popliteal lymph node cells; (2) analysis of cell surface marker (CD4, CD8, CD19, F480, CD80, CD86) expression by flow cytometry of living cells in suspension; and (3) IL-4, TNFα and IFNγ production by lymphocytes in vitro (ELISA).
Groups (n=5 per group) of specific pathogen free BALB/C mice were used. The Positive control group was treated with vehicle (oral gavage) and 5 μg/day dexamethasone by subcutaneous injection to induce immune suppression. Vehicle control animals (negative control) were treated with vehicle alone (oral gavage). One group of animals was treated with 17α-ethynylandrost-5-ene-3β,7β,17β-triol at 0.1 mg/day by oral gavage. Another group was treated with 1 mg/day of 17α-ethynylandrost-5-ene-3β,7β,17β-triol was administered to the animals oral gavage. The results were analyzed by two-tailed Student's t-test with equal variance. The animals were injected in the right hind footpad with 50 μL of freshly prepared sensitizing dose of TNP-OVA. Dexamethasone (decadron phosphate injection; dexamethasone sodium phosphate) was administered by subcutaneous injection into the nape of the neck daily, immediately following sensitization with TNP-OVA. 17α-Ethynylandrost-5-ene-3β,7β,17β-triol was given immediately afterwards by gavage. Five days after injection of TNP-OVA, blood was drawn by orbital puncture, and the mice were euthanized by cervical dislocation and popliteal lymph nodes were removed and separated from adherent fatty tissue. Single cell suspensions were prepared, resuspended in 1 mL PBS-BSA (1%) and counted. Cell numbers, IL-4, IL-5 and IFNγ were measured.

MG-63 cells = assay: reversal of glucocorticoid effects in MG-63 osteosarcoma cells; assay type: cell-based, human; conditions: dexamethasone 30 nM
[10] = system: BALB/c mice, OVA sensitized and challenged; assay: ovalbumin (OVA) sensitized mouse model of asthma; assay type: in vivo; conditions: for IL-13: s.c. once daily, dexamethasone 5 mg/kg, compound 1 mg/mouse
Method: BALB/c mice were sensitized by intraperitoneal injection with OVA (in alum adjuvant) on days 1, and 12. Airways were challenged with OVA on days 28 and 30 by delivery of OVA to the lung, or with saline. […] The remaining animals were divided into 6 groups (6 mice per group). Groups of the mice were treated once daily by subcutaneous injection as follows. Group 1 vehicle control (0.1% carboxymethyl cellulose, 0.9% saline, 2% tween 80, 0.05% phenol). Group 2 dexamethazone (5 mg/kg). Group 3 3α,16α,17α-trihydroxyandrostane (1 mg/mouse). Three animals in groups 1-3 were sacrificed on day 35 at 1 hr after final treatment and the remaining 3 animals in groups 1-3 were sacrificed on day 38.

## C[C@]12CC[C@H](O)CC1CC[C@@H]1[C@@H]2CC[C@]2(C)C(=O)[C@H](O)C[C@@H]12 (stereo partly drawn) [3β,16α-dihydroxy-17-oxoandrostane]
[1]; 0.001 mg dose s.c.
  neutrophils in the pleura / pleural exudate: inactive
[1]; 0.001 mg s.c. 24 h and 1 h before carrageenan-λ
  number of neutrophils relative to untreated carrageenan-λ control (100%): 97%
[1]; 0.01 mg s.c. 24 h and 1 h before carrageenan-λ
  number of neutrophils relative to untreated carrageenan-λ control (100%): 73%
[1]; 0.1 mg and 0.01 mg doses s.c.
  number of neutrophils in the pleura: significant reduction
[1]; 0.1 mg dose s.c.
  volume of pleural exudate: significantly reduced
[1]; 0.1 mg s.c. 24 h and 1 h before carrageenan-λ
  number of neutrophils relative to untreated carrageenan-λ control (100%): 73%
[1]; s.c.
  potency compared with polyclonal anti-TNF-α antibody control: less potent
NF-κB; Homo sapiens, THP-1, read-out: IC50 for inhibition of NF-κB activation, after LPS stimulation, 50% of the maximum inhibition the compound can induce, averages of 2-4 assays
  IC50: > 10000 nM
[2]
  immune suppression in the MLR: not appreciably immune suppressive
[3]
  production of γ-interferon: Reduced production
[4]
  cell counts in the BAL fluid: about 4.4×10^7 cells/mL
[5]
  survival at 72 hours: 50%
[6]
  metabolism by microsomes: metabolized by microsomes at a rate similar to the androst-5-ene-3β,17β-diol reference compound

## C[C@]12CC[C@H]3[C@@H](CCC4=C[C@H](O)CC[C@@H]43)[C@@H]1CC[C@@H]2O [4-estrene-3α,17β-diol]
[7]
  osteoblast and osteocyte apoptosis: reduce apoptosis

## C[C@@H]1C[C@H]2[C@@H]3CCC4=CC(=O)C=C[C@]4(C)[C@@]3(F)[C@@H](O)C[C@]2(C)[C@@]1(O)C(=O)CO [dexamethasone, reference compound]
NF-κB; Homo sapiens, THP-1, TNFα stimulation, average of 5 assays, read-out: EC50 for decreasing the effect of TNFα
  EC50: 0.47 nM
NF-κB; this protocol
  maximum NF-κB inhibition: 100%
[8]
  osteoprotegerin: 3.3 pmol/L
[9]
  average number of lymphocytes in PLNs: 2.9×10^6 per lymph node
MG-63 cells; compounds at 10 nM in the presence of 30 nM dexamethasone, vehicle control 0.25
  11β-HSD mRNA: 1.0 units
MG-63 cells; compounds at 10 nM in the presence of 30 nM dexamethasone, vehicle control 0.90
  IL-8: 0.12 units
MG-63 cells; compounds at 10 nM in the presence of 30 nM dexamethasone, vehicle control 6.2
  IL-6: 1.3 pg/mL
MG-63 cells; vehicle control 445
  osteoprotegerin: 280 pmol/L
[10]; day 35
  IL-13: 340 pg/mL
[10]; day 38
  IL-5 in lung tissue: 145 pg/mL
  IL-13: 390 pg/mL
